From paper PMC5111108, “An insecticide resistance-breaking mosquitocide targeting inward rectifier potassium channels in vectors of Zika virus and malaria” (Scientific Reports, 2016)

Experiments:
honey bee, A. mellifera = assay: Acute topical toxicity to adult honey bees; assay type: in vivo, Apis mellifera; conditions: bifenthrin positive control, 0.3 μg per bee (0.1 μg/bee) topical, 48 h
Experimental: Frames of late-stage honey bee (A. mellifera) pupae were taken from four colonies at The Ohio State University Honey Bee Lab in Wooster, OH and maintained in a dark humid incubator at 34 °C (Darwin Chambers Co., St. Louis, MO, model H024) until adult bees emerged. New adults were brushed from frames daily and placed in wooden screen cages (21 × 14 × 12 cm) provisioned with 1:1 (w/w) sucrose in water.
Acute toxicity experiments in adult bees were performed as follows. Twenty-four hours after emergence, adult honey bees in cages were anaesthetized with carbon dioxide, divided into groups of approximately 20 bees and placed in plastic-coated paper cups (177 cm^3; UNIQ Paper Yogurt Cup, Frozen Dessert Supplies, Gilbert, AZ) covered with cotton cheesecloth. […] As a positive control, some bees were treated with 3 μl of bifenthrin (0.1 μg/μl); negative controls consisted of bees treated with 3 μl of solvent. Applications were made using a 20 μl micropipette (Fisherbrand Finnpipette F2, Fisher Scientific, Pittsburgh, PA) with disposable plastic tips. After treatment, bees were returned to the paper cups and provided with sugar syrup in punctured 1.5 ml microcentrifuge tubes. […] Bees showing no movement on inspection at 48 h after treatment were scored as dead.

AnKir1 = target: T1, AnKir1 (Anopheles gambiae, UniProt A0A075M2J8); assay: Tl+ flux assay in T-REx-HEK293 cells expressing AnKir1; assay type: cell-based; conditions: Tl+ flux; for IC50: Tables S2/S3 and supplemental text, read-out: AnKir1 IC50
T1 sequence (A0A075M2J8 1-555): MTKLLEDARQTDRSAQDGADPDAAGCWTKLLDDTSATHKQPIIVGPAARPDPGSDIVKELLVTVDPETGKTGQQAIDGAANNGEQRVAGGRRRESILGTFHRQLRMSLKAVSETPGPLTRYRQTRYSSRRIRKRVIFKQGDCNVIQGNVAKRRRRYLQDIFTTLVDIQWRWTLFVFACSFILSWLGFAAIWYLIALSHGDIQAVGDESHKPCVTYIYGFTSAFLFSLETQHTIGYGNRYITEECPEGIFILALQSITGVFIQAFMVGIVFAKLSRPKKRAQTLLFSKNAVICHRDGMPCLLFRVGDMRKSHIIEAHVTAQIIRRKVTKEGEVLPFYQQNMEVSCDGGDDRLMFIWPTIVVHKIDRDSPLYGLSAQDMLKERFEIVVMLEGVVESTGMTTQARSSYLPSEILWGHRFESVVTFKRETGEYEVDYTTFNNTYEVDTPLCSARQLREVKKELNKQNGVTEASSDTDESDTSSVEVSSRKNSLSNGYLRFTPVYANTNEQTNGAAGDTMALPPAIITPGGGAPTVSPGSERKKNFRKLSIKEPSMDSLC
Experimental: Tl^+ flux assays were performed essentially as described previously. Briefly, stably transfected T-Rex-HEK-293 cells expressing AnKir1 channels were cultured overnight in 384-well plates (20,000 cells/20 μL/well black-walled, clear-bottomed BD PureCoat amine-coated plates (BD, Bedford, MA) with a plating media containing DMEM, 10% dialyzed FBS and 1 μg/mL tetracycline. Approximately twenty-four hours after cell plating, the cell culture medium was replaced with a dye-loading solution containing assay buffer (Hanks Balanced Salt Solution with 20 mM HEPES, pH 7.3), 0.01% (w/v) Pluronic F-127 (Life Technologies, Carlsbad, CA), and 1.2 μM of the thallium-sensitive dye Thallos-AM (TEFlabs, Austin, TX). Following 1 hr incubation at room temperature, the dye-loading solution was washed from the plates and replaced with 20 μL/well of assay buffer.
Tl+ flux assay development
Tl+ flux assays were performed essentiall y as described previousl y (1). Briefl y, stabl y transfect ed T-Rex -HEK- 293- AnKir1 cells were cultured overnight in 384-well plates in media containing DMEM, 10% dial yz ed FBS and 1μg/ m L tetrac ycline to induce channel expression
(Fig. S1A). The next day, the cell culture medium was replaced with a dye-loading solution containing assay buffer (Hanks Balanced Salt Solution with 20 mM HEPES, pH 7.3), 0.01% (w/v) Pluronic F-127 (Li fe Technologies, Carlsbad, CA), and 1.2 μM of the thallium-sensitive dye Thallos-AM (TEFl abs, Austin, TX). Following 1 hr incubation at room temperature, the d ye-loading solution was washed from the plates and replaced with 20 μ L/well of assa y buffer. The plates were transferred t o a Ham amatsu Functional Drug Screening System 6000 (FDSS6000; Hamamatsu, Tokyo, J apan) where 20 μ L/well of test compounds in assay buffer (as prepared below) were added and allowed to incubate with the cells for 20 min. After the incubation period, a baseline recordi ng was collected at 1 Hz for 10 s (excitation 470 ± 20 nm, emission 540 ± 30 nm) followed by a t hallium stimulus buffer addition (10 μL/well) and data collection for an additional 4 min. The Tl + stimulus buffer contains in (mM) 125 NaHCO3, 1.8 CaSO4, 1 MgSO4, 5 glucose, 12 Tl2SO4, 10 HEPES, pH 7.4. For Tl + flux assays on Kir2.x, Kir4.1 and Kir6.2/SUR1 ex pressing cells, the Tl+ stimulus buffer contained 1.8 mM Tl 2SO4. To ensure the small-molecule vehicle DMSO had no direct effect on An Ki r1-dependent Tl+ flux, the assa y’s tolerance to different doses of DMSO was evaluated (Fig. S1B). The robustness and reproducibility of the assay was determined by comparing Tl+ flux through tetracycline-induced and tetracycline-uninduced cells (Fig. S1C). The Z’ value was calculated as described previously (1 ), using the […]
Z’ = 1- (3SD p + 3SD n)/ |meanp + meann | where SD is standard deviation, p and n are control and uninduced flux values respectivel y.
To compare the effect of DMSO on An Kir1-mediated Tl+ flux, a one-way ANOVA was performed with a Tuke y’s multiple comparison test. Prism software (GraphPad Software) was used to generate CRC from Tl+ fl ux ..Half-inhibition concentration (IC50) values were calculated from fits using a four parameter logistic equation.
High-throughput screeni ng
The test compounds were transferred to daughter pol yprop ylene 384-well plates (G reiner Bio-One, Monroe, NC) using an Echo555 liquid handler (Labcyte, Sunnyvale, CA), and then diluted into assay buffer to generat e a 2X stock in 0.6% DMSO (0.3% final). For Tl+ flux assays on Kir6.2/SUR1 expressing cells, test compounds were diluted in assay buffer containing diazoxide (250 μM final) to induce channel activation. Concentration- response curves (CRCs) were gener ated b y screening compounds at 3-fold dilution series (1 nM - 30 μM).
Tl+ flux data were anal yzed as previousl y d escri bed (2, 3) using a combination of Excel (Microsoft Corp, Redmond, WA) with XLfit add-in (IDBS, Guildford, Surre y, UK), Ori ginPro […]

An. gambiae G3 strain = tested on: An. gambiae G3 strain; design: method as in PMID 26047119; conditions: topical, (95% confidence limits); cited from earlier work
An. gambiae Akron strain = conditions: topical, (95% confidence limits); cited from earlier work
mosquito Kir1 channels = tested on: mosquito Kir1 channels; design: method as in PMID 24959745; conditions: read-out: IC50 against mosquito Kir1 channels in vitro; cited from earlier work
mosquitoes = tested on: mosquitoes; design: method as in PMID 24959745; conditions: cited from earlier work

With Cc1c(COC(=O)[C@@H]2[C@H](/C=C(\Cl)C(F)(F)F)C2(C)C)cccc1-c1ccccc1 (racemic) [bifenthrin, reference compound] the “honey bees dead (mortality)” value (honey bee, A. mellifera) was 100%.

O=C(Cn1nc(C(F)(F)F)c2c1CCCC2)N1CCOc2ccccc21 [Compound 14] showed an IC50 (AnKir1) of 4.6 µM.

In the case of CC1(C)C(C=C(Cl)Cl)C1C(=O)OCc1cccc(Oc2ccccc2)c1 (stereo not drawn) [Permethrin], the “ED50, G3 Strain” value (An. gambiae G3 strain) is listed as 0.03e-5 (0.02e-5–0.05e-5) μg/mg and the “ED50, Akron Strain” value (An. gambiae Akron strain) is listed as 1.0e-3 (0.8e-4–1.3e-3) μg/mg.

O=C(CN1CCCc2ccccc21)N1CCCc2ccccc21 [Compound 6] showed an IC50 (AnKir1) of 8 µM.

With O=C(Cn1nc(C(F)(F)F)c2c1CCCC2)N1CCc2ccccc2C1 [Compound 8] the “loss of potency vs VU041 (AnKir1)” value (AnKir1) was ~ 7 fold and the IC50 (AnKir1) was 15 µM.

In the case of CCC(=O)N1c2ccc(S(=O)(=O)Nc3cccc(OC)c3)cc2CC1C (stereo not drawn) [VU625], the IC50 (mosquito Kir1 channels) is given as about 0.1 µM and the “topical toxicity to mosquitoes” value (mosquitoes) is given as “not topically toxic to mosquitoes”.
